# According to ChEMBL document CHEMBL5543059, “Discovery of anti-inflammatory natural flavonoids: Diverse scaffolds and promising leads for drug discovery” (Eur J Med Chem, 2023):
# Experiments:
# J774.A1 = assay: Anti-inflammatory activity in mouse J774.A1 cells assessed as suppression of LPS-induced IL-6 production by ELISA analysis; format: functional, cell-based
# BV-2 [1] = assay: Anti-inflammatory activity in mouse BV-2 cells assessed as inhibition of LPS-induced NO production preincubated with compound for 1 hrs followed by LPS stimulation and measured after 24 hrs by Griess reagent based assay; format: functional, cell-based
# RAW264.7 [2] = assay: Antiinflammatory activity in mouse RAW264.7 cells assessed as suppression of LPS-induced iNOS expression preincubated with compound for 1 hrs followed by LPS-stimulation and measured after 24 hrs by Western blot analysis; format: functional, cell-based
# RAW264.7 [3] = assay: Anti-inflammatory activity in mouse RAW264.7 cells assessed as inhibition of LPS-induced NO production at 20 uM by Griess reagent based analysis relative to control; format: functional; set-up: scale not given: the % may be the effect or the level left
# [4] = biological target: T1, Polyunsaturated fatty acid 5-lipoxygenase (Homo sapiens) (UniProt P09917); assay: Inhibition of 5-Lipoxygenase (unknown origin) at 30 uM relative to control
# T1 sequence (whole entry): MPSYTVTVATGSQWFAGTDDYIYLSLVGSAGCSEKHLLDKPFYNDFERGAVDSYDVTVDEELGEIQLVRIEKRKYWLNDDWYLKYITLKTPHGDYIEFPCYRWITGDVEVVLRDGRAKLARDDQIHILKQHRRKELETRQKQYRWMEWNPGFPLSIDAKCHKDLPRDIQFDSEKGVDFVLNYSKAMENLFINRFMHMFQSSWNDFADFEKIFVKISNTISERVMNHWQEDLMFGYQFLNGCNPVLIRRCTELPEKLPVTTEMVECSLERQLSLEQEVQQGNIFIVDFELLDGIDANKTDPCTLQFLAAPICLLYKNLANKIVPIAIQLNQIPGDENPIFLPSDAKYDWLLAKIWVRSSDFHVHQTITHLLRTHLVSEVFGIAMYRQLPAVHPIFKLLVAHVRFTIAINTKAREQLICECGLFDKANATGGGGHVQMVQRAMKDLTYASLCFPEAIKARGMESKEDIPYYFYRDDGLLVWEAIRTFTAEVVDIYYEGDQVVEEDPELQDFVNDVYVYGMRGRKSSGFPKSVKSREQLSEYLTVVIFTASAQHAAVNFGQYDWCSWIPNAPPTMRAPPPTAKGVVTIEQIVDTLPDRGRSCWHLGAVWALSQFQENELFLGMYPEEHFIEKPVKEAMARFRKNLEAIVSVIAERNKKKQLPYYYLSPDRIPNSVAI
# RAW264.7 [5] = assay: Anti-inflammatory activity in LPS-stimulated mouse RAW264.7 cells assessed as inhibition of NO production incubated for 24 hrs by Griess reagent based assay; format: functional, cell-based; details: RAW264.7, 24 h
# Peritoneal macrophage [6] = assay: Anti-inflammatory activity against LPS-stimulated mouse peritoneal macrophage assessed as reduction in nitric oxide production; format: functional, cell-based
# BV-2 [7] = assay: Anti-inflammatory activity in mouse BV-2 cells assessed as reduction in LPS-induced NO production pretreated for 1 hr followed by LPS-stimulation and measured after 18 hrs by 2,3-diaminonaphthalene reagent based fluorescence analysis; format: functional, cell-based
# RAW264.7 [8] = assay: Anti-inflammatory activity in mouse RAW264.7 cells assessed as reduction in LPS-induced NO production by ELISA analysis; format: functional, cell-based
# THP-1 = assay: Anti-inflammatory activity in human THP-1 cells assessed as inhibition of LPS-stimulated NO production by ELISA analysis; format: functional, cell-based
# BV-2 [9] = assay: Anti-inflammatory activity in mouse BV-2 cells assessed as reduction in LPS-induced NO production; format: functional, cell-based
# Neutrophil [10] = assay: Inhibition of fMLF/CB-induced human Neutrophil activation assessed as reduction in superoxide anion at 10 uM relative to control; format: functional; set-up: scale not given: the % may be the effect or the level left
# Neutrophil [11] = assay: Inhibition of fMLF/CB-induced human Neutrophil activation assessed as reduction in elastase release; format: functional, cell-based
# Neutrophil [12] = assay: Inhibition of fMLF/CB-induced human Neutrophil activation assessed as reduction in superoxide anion; format: functional, cell-based
# BV-2 [13] = assay: Antineuroinflammatory activity in LPS-induced mouse BV-2 cells assessed as inhibition of iNOS production at 50 uM pre-incubated for 2 hr followed by LPS-stimulation measured for 24 hrs by Western blot analysis; format: functional; set-up: scale not given: the % may be the effect or the level left; details: time 26 hrs
# [14] = Inhibition of TNF-alpha induced NF-kappaB activation in HEK293-A cells incubated for 15 mins by Western blot analysis; format: cell-based; details: Homo sapiens, HEK293, 0.25 h
# Peritoneal macrophage [15] = assay: Antiinflammatory activity in mouse peritoneal macrophages assessed as fold reduction in LPS-induced TNFalpha level at 20 uM incubated for 4 hrs by ELISA method; format: functional
# BMDM = assay: Antiinflammatory activity in LPS-stimulated mouse BMDM cells assessed as inhibition of NF-kappaB signalling pathway incubated for 3 hrs by Western blot analysis; format: functional, cell-based
# RAW264.7 [16] = assay: Anti-inflammatory activity in mouse RAW264.7 cells assessed as inhibition of LPS-induced iNOS mRNA expression; format: functional, cell-based
# Mus musculus = assay: Anti-inflammatory activity in mouse model of xylene-induced auricle edema assessed as inhibition of ear swelling at 50 mg/kg, IG pre-treated for 1 hr followed by xylene addition and measured after 1 hr relative to control; format: functional; set-up: scale not given: the % may be the effect or the level left
# Neutrophil [17] = assay: Inhibition of fMLF/CB-induced human Neutrophil activation assessed as reduction in superoxide anion generation pre-incubated for 2 mins prior to CB induction for 3 mins followed by fMLF addition by spectrophotometric analysis; format: functional, cell-based
# Neutrophil [18] = assay: Inhibition of fMLF/CB-induced human Neutrophil activation assessed as reduction in elastase release using MeO-Suc-Ala-Ala-Pro-Val-pnitroanilide as substrate pre-incubated for 2 mins followed by fMLF/CB-stimulation and measured for 5 mins; format: functional, cell-based
# HEK293 = assay: Anti-inflammatory activity against TNFalpha-induced HEK293 cells assessed as inhibition of NF-kappaB activity pre-indubated for 1 hr followed by TNFalpha treatment measured for 5 hrs by luciferase based assay; format: functional, cell-based; details: Homo sapiens
compound,measurement,setting,value
COc1cc(O)c2c(=O)c(OC)c(-c3ccc(OC)c(O)c3)oc2c1 [AYANIN],IC50,J774.A1,17.8 µM
same,IC50,BV-2 [1],25.1 µM
CC1=C(O)C(=O)C=C2C1=CC=C1[C@@]2(C)CC[C@@]2(C)[C@@H]3C[C@](C)(C(=O)O)CC[C@]3(C)CC[C@]12C [CELASTROL],IC50,RAW264.7 [2],1 µM
COc1cc(-c2cc(=O)c3c(O)cc(O)cc3o2)ccc1O [CHRYSOERIOL],IC50,RAW264.7 [2],3.1 µM
COc1cc2oc(-c3ccc(O)c(O)c3)cc(=O)c2c(O)c1OC [CIRSILIOL],Activity,RAW264.7 [3],54%
same,inhibition,[4],48.5%
COc1ccc2c(c1)c(CC(=O)O)c(C)n2C(=O)c1ccc(Cl)cc1 [INDOMETHACIN],IC50,RAW264.7 [5],8.5 µM
same,IC50,Peritoneal macrophage [6],148 µM
same,IC50,BV-2 [7],55.4 µM
same,IC50,RAW264.7 [8],17.6 µM
same,IC50,THP-1,19.4 µM
same,IC50,BV-2 [9],15.2 µM
COc1ccc(-c2coc3cc(O)c(OC)c(O)c3c2=O)cc1 [IRISOLIDONE],IC50,Peritoneal macrophage [6],23.6 µM
O=c1cc(N2CCOCC2)oc2c(-c3ccccc3)cccc12 [LY-294002],Activity,Neutrophil [10],96.5%
same,IC50,Neutrophil [11],3.2 µM
same,IC50,Neutrophil [12],1.1 µM
CC(C)(O)c1ccccc1CC[C@@H](SCC1(CC(=O)O)CC1)c1cccc(/C=C/c2ccc3ccc(Cl)cc3n2)c1 [MONTELUKAST],IC50,J774.A1,8.7 µM
COc1ccc(-c2cc(=O)c3c(OC)c(OC)c(OC)c(OC)c3o2)cc1OC [NOBILETIN],Activity,BV-2 [13],71.2%
COc1c(O)cc2oc(-c3ccccc3)cc(=O)c2c1O [OROXYLIN A],IC50,[14],3.9 µM
CC(C)=CCc1c2c(c3occ(-c4ccc(O)cc4)c(=O)c3c1O)C=CC(C)(C)O2 [OSAJIN],fold change (FC),Peritoneal macrophage [15],1.8
same,IC50,BMDM,12 µg/mL
same,IC50,RAW264.7 [16],7.2 µg/mL
CC(C)=CCc1c2c(c3occ(-c4ccc(O)c(O)c4)c(=O)c3c1O)C=CC(C)(C)O2 [POMIFERIN],fold change (FC),Peritoneal macrophage [15],1.5
same,IC50,BMDM,13 µg/mL
same,IC50,RAW264.7 [16],6.4 µg/mL
COc1ccc(-c2cc(=O)c3c(OC)c(OC)c(OC)cc3o2)cc1OC [SINENSETIN],Activity,Mus musculus,58%
COc1cc(O)c2c(=O)cc(-c3ccc(O)c(OC)c3)oc2c1 [VELUTIN],IC50,Neutrophil [17],≤ 12.5 µM
same,IC50,Neutrophil [18],≤ 15.2 µM
COc1c(O)cc(O)c2c(=O)cc(-c3ccccc3)oc12 [WOGONIN],IC50,HEK293,28.1 µM
